Source: the OligoGym collection
HELM strings list units from the 5' end as sugar, base in round brackets, then linkage (d deoxyribose, r ribose, m 2'-O-methyl, p phosphodiester). Strings are as the collection lists them; they lack the last nucleoside at the 3' end of the tested compound. [moe] = 2'-O-(2-methoxyethyl) (MOE); [sp] = phosphorothioate linkage; [m5C] = 5-methylcytosine

molecular target: ATXN3; assay: mouse, dose not given; conditions: ASO

Row | Substance | 3 h FOB score [score 0-7]
1 | RNA1{[moe](G)[sp].[moe]([m5C])p.[moe]([m5C])p.[moe](A)p.[moe](A)[sp].d(T)[sp].d(A)[sp].d(T)[sp].d(T)[sp].d(T)[sp].d(A)[sp].d(T)[sp].d(A)[sp].d(G)[sp].d(G)[sp].[moe](T)p.[moe](G)p.[moe]([m5C])[sp].[moe](T)}$$$$ (last 3' nucleoside missing) | 3
2 | RNA1{[moe](G)[sp].[moe]([m5C])p.[moe]([m5C])p.[moe](A)p.[moe](A)p.d(T)[sp].d(A)[sp].d(T)[sp].d(T)[sp].d(T)[sp].d(A)[sp].d(T)[sp].d(A)[sp].d(G)[sp].d(G)[sp].[moe](T)p.[moe](G)p.[moe]([m5C])[sp].[moe](T)}$$$$ (last 3' nucleoside missing) | 1.5
3 | RNA1{[moe](G)[sp].[moe]([m5C])p.[moe]([m5C])p.[moe](A)p.[moe](T)p.[moe](T)p.d(A)[sp].d(A)[sp].d(T)[sp].d([m5C])[sp].d(T)[sp].d(A)[sp].d(T)[sp].d(A)[sp].d([m5C])[sp].d(T)[sp].[moe](G)p.[moe](A)[sp].[moe](A)}$$$$ (last 3' nucleoside missing) | 0
4 | RNA1{[moe](G)[sp].[moe]([m5C])p.[moe]([m5C])p.[moe](A)p.[moe](T)p.d(T)[sp].d(A)[sp].d(A)[sp].d(T)[sp].d([m5C])[sp].d(T)[sp].d(A)[sp].d(T)[sp].d(A)[sp].d([m5C])[sp].[moe](T)p.[moe](G)p.[moe](A)[sp].[moe](A)}$$$$ (last 3' nucleoside missing) | 1
5 | RNA1{[moe](T)[sp].[moe](A)[sp].[moe](A)p.[moe](T)p.[moe](A)[sp].d([m5C])[sp].d(T)[sp].d(T)[sp].d(T)[sp].d(T)[sp].d(T)[sp].d([m5C])[sp].d([m5C])[sp].d(A)[sp].d(G)[sp].[moe]([m5C])p.[moe]([m5C])p.[moe](T)[sp].[moe](T)}$$$$ (last 3' nucleoside missing) | 1.5
6 | RNA1{[moe](T)[sp].[moe](A)p.[moe](A)p.[moe](T)p.[moe](A)[sp].d([m5C])[sp].d(T)[sp].d(T)[sp].d(U)[sp].d(T)[sp].d(T)[sp].d([m5C])[sp].d([m5C])[sp].d(A)[sp].d(G)[sp].[moe]([m5C])p.[moe]([m5C])p.[moe](T)[sp].[moe](T)}$$$$ (last 3' nucleoside missing) | 1
7 | RNA1{[moe](T)[sp].[moe](A)p.[moe](A)p.[moe](T)p.[moe](A)[sp].d([m5C])[sp].d(U)[sp].d(T)[sp].d(T)[sp].d(T)[sp].d(T)[sp].d([m5C])[sp].d([m5C])[sp].d(A)[sp].d(G)[sp].[moe]([m5C])p.[moe]([m5C])p.[moe](T)[sp].[moe](T)}$$$$ (last 3' nucleoside missing) | 1
8 | RNA1{[moe](T)[sp].[moe](A)p.[moe](A)p.[moe](T)p.[moe](A)p.[moe]([m5C])p.d(T)[sp].d(T)[sp].d(T)[sp].d(T)[sp].d(T)[sp].d([m5C])[sp].d([m5C])[sp].d(A)[sp].d(G)[sp].d([m5C])[sp].[moe]([m5C])p.[moe](T)[sp].[moe](T)}$$$$ (last 3' nucleoside missing) | 3
9 | RNA1{[moe](T)[sp].[moe](A)p.[moe](A)p.[moe](T)p.[moe](T)[sp].d([m5C])[sp].d(T)[sp].d(T)[sp].d(G)[sp].d([m5C])[sp].d(T)[sp].d(T)[sp].d([m5C])[sp].d(A)[sp].d(A)[sp].[moe]([m5C])p.[moe]([m5C])p.[moe](A)[sp].[moe](T)}$$$$ (last 3' nucleoside missing) | 1.38
10 | RNA1{[moe](T)[sp].[moe](G)[sp].[moe](G)p.[moe]([m5C])p.[moe](A)[sp].d([m5C])[sp].d(A)[sp].d(T)[sp].d(T)[sp].d(T)[sp].d(T)[sp].d(T)[sp].d(T)[sp].d(A)[sp].d(T)[sp].[moe](A)p.[moe](G)p.[moe](A)[sp].[moe](G)}$$$$ (last 3' nucleoside missing) | 3.25
11 | RNA1{[moe](T)[sp].[moe](G)[sp].[moe](T)p.[moe](T)p.[moe](A)[sp].d(A)[sp].d(T)[sp].d(A)[sp].d([m5C])[sp].d(T)[sp].d(T)[sp].d(T)[sp].d(T)[sp].d(T)[sp].d([m5C])[sp].[moe]([m5C])p.[moe](A)p.[moe](G)[sp].[moe]([m5C])}$$$$ (last 3' nucleoside missing) | 1
12 | RNA1{[moe](T)[sp].[moe](G)[sp].[moe]([m5C])p.[moe](T)p.[moe]([m5C])[sp].d(A)[sp].d(T)[sp].d(T)[sp].d(T)[sp].d(A)[sp].d(T)[sp].d(T)[sp].d([m5C])[sp].d(T)[sp].d([m5C])[sp].[moe](A)p.[moe](A)p.[moe](G)[sp].[moe](T)}$$$$ (last 3' nucleoside missing) | 1
13 | RNA1{[moe](T)[sp].[moe](G)p.[moe](A)[sp].[moe](G)[sp].[moe]([m5C])[sp].d([m5C])[sp].d(A)[sp].d(A)[sp].d(T)[sp].d(A)[sp].d(T)[sp].d(T)[sp].d(T)[sp].d(A)[sp].d(T)[sp].[moe](A)[sp].[moe](G)p.[moe](G)[sp].[moe](T)}$$$$ (last 3' nucleoside missing) | 4
14 | RNA1{[moe](T)[sp].[moe](G)p.[moe](G)[sp].[moe]([m5C])[sp].[moe](A)[sp].d([m5C])[sp].d(A)[sp].d(T)[sp].d(T)[sp].d(T)[sp].d(T)[sp].d(T)[sp].d(T)[sp].d(A)[sp].d(T)[sp].[moe](A)[sp].[moe](G)p.[moe](A)[sp].[moe](G)}$$$$ (last 3' nucleoside missing) | 6
15 | RNA1{[moe](T)[sp].[moe](G)p.[moe](G)p.[moe](A)p.[moe](A)[sp].d([m5C])[sp].d(T)[sp].d(A)[sp].d([m5C])[sp].d([m5C])[sp].d(T)[sp].d(T)[sp].d(G)[sp].d([m5C])[sp].d(A)[sp].[moe](T)p.[moe](A)p.[moe]([m5C])[sp].[moe](T)}$$$$ (last 3' nucleoside missing) | 5.38
16 | RNA1{[moe](T)[sp].[moe](G)p.[moe](G)p.[moe](T)p.[moe](T)[sp].d(T)[sp].d(T)[sp].d([m5C])[sp].d(T)[sp].d([m5C])[sp].d(A)[sp].d(T)[sp].d(T)[sp].d(T)[sp].d(T)[sp].[moe](T)p.[moe](A)p.[moe](T)[sp].[moe](A)}$$$$ (last 3' nucleoside missing) | 0
17 | RNA1{[moe](T)[sp].[moe](G)p.[moe](G)p.[moe]([m5C])p.[moe](A)p.[moe]([m5C])p.d(A)[sp].d(T)[sp].d(T)[sp].d(T)[sp].d(T)[sp].d(T)[sp].d(T)[sp].d(A)[sp].d(T)[sp].d(A)[sp].[moe](G)p.[moe](A)[sp].[moe](G)}$$$$ (last 3' nucleoside missing) | 2.75
18 | RNA1{[moe](T)[sp].[moe](G)p.[moe](G)p.[moe]([m5C])p.[moe](A)p.d([m5C])[sp].d(A)[sp].d(T)[sp].d(T)[sp].d(T)[sp].d(T)[sp].d(T)[sp].d(T)[sp].d(A)[sp].d(T)[sp].[moe](A)p.[moe](G)p.[moe](A)[sp].[moe](G)}$$$$ (last 3' nucleoside missing) | 2.5
19 | RNA1{[moe](T)[sp].[moe](G)p.[moe](T)p.[moe](A)p.[moe]([m5C])[sp].d(A)[sp].d([m5C])[sp].d(T)[sp].d(T)[sp].d(T)[sp].d(T)[sp].d(A)[sp].d([m5C])[sp].d(A)[sp].d(T)[sp].[moe](T)p.[moe]([m5C])p.[moe]([m5C])[sp].[moe]([m5C])}$$$$ (last 3' nucleoside missing) | 1
20 | RNA1{[moe](T)[sp].[moe](G)p.[moe](T)p.[moe](T)p.[moe](A)[sp].d(A)[sp].d(T)[sp].d(A)[sp].d([m5C])[sp].d(T)[sp].d(T)[sp].d(T)[sp].d(T)[sp].d(T)[sp].d([m5C])[sp].[moe]([m5C])p.[moe](A)p.[moe](G)[sp].[moe]([m5C])}$$$$ (last 3' nucleoside missing) | 0
21 | RNA1{[moe](T)[sp].[moe](G)p.[moe](T)p.[moe](T)p.[moe](A)p.d(A)[sp].d(T)[sp].d(A)[sp].d([m5C])[sp].d(T)[sp].d(T)[sp].d(T)[sp].d(T)[sp].d(T)[sp].d([m5C])[sp].[moe]([m5C])p.[moe](A)p.[moe](G)[sp].[moe]([m5C])}$$$$ (last 3' nucleoside missing) | 1
22 | RNA1{[moe](T)[sp].[moe](G)p.[moe](T)p.[moe](T)p.[moe]([m5C])[sp].d(A)[sp].d(T)[sp].d(A)[sp].d(T)[sp].d([m5C])[sp].d([m5C])[sp].d(T)[sp].d(T)[sp].d(T)[sp].d(A)[sp].[moe](A)p.[moe]([m5C])p.[moe]([m5C])[sp].[moe]([m5C])}$$$$ (last 3' nucleoside missing) | 0
23 | RNA1{[moe](T)[sp].[moe](G)p.[moe]([m5C])p.[moe](A)p.[moe]([m5C])[sp].d(A)[sp].d([m5C])[sp].d(T)[sp].d(T)[sp].d(T)[sp].d([m5C])[sp].d([m5C])[sp].d(T)[sp].d([m5C])[sp].d([m5C])[sp].[moe](T)p.[moe]([m5C])p.[moe](A)[sp].[moe](A)}$$$$ (last 3' nucleoside missing) | 0.5
24 | RNA1{[moe](T)[sp].[moe](G)p.[moe]([m5C])p.[moe](T)p.[moe](T)[sp].d(T)[sp].d(T)[sp].d([m5C])[sp].d(A)[sp].d(T)[sp].d(A)[sp].d([m5C])[sp].d([m5C])[sp].d(A)[sp].d(G)[sp].[moe](G)p.[moe](T)p.[moe]([m5C])[sp].[moe](T)}$$$$ (last 3' nucleoside missing) | 0.25
25 | RNA1{[moe](T)[sp].[moe](G)p.[moe]([m5C])p.[moe](T)p.[moe](T)p.d(T)[sp].d(T)[sp].d([m5C])[sp].d(A)[sp].d(T)[sp].d(A)[sp].d([m5C])[sp].d([m5C])[sp].d(A)[sp].d(G)[sp].[moe](G)p.[moe](T)p.[moe]([m5C])[sp].[moe](T)}$$$$ (last 3' nucleoside missing) | 1.25
26 | RNA1{[moe](T)[sp].[moe](G)p.[moe]([m5C])p.[moe](T)p.[moe]([m5C])[sp].d(A)[sp].d(T)[sp].d(T)[sp].d(T)[sp].d(A)[sp].d(T)[sp].d(T)[sp].d([m5C])[sp].d(T)[sp].d([m5C])[sp].[moe](A)p.[moe](A)p.[moe](G)[sp].[moe](T)}$$$$ (last 3' nucleoside missing) | 0
